In PubChem BioAssay (NCI):
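Five compound concentrations were applied to cells in 96-well plates for 48 hours; endpoints were derived by simple linear interpolation of the resulting dose-response curve. TGI: concentration producing complete growth inhibition.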

Experiments:
Test in all cases: NCI tumour cell line growth inhibition, 48 h
786-0 renal = tested on: 786-0 renal
A498 renal = tested on: A498 renal
A549 NSCLC = tested on: A549 NSCLC
ACHN renal = tested on: ACHN renal
CAKI-1 renal = tested on: CAKI-1 renal
CCRF-CEM leukemia = tested on: CCRF-CEM leukemia
COLO 205 colon = tested on: COLO 205 colon
DLD-1 colon = tested on: DLD-1 colon
DMS 114 small cell lung = tested on: DMS 114 small cell lung
DMS 273 small cell lung = tested on: DMS 273 small cell lung
EKVX NSCLC = tested on: EKVX NSCLC
HCC-2998 colon = tested on: HCC-2998 colon
HCT-116 colon = tested on: HCT-116 colon
HCT-15 colon = tested on: HCT-15 colon
HL-60(TB) leukemia = tested on: HL-60(TB) leukemia
HOP-62 NSCLC = tested on: HOP-62 NSCLC
HOP-92 NSCLC = tested on: HOP-92 NSCLC
HT29 colon = tested on: HT29 colon
IGROV1 ovarian = tested on: IGROV1 ovarian
K-562 leukemia = tested on: K-562 leukemia
KM12 colon = tested on: KM12 colon
KM20L2 colon = tested on: KM20L2 colon
LOX IMVI melanoma = tested on: LOX IMVI melanoma
LXFL 529 NSCLC = tested on: LXFL 529 NSCLC
M14 melanoma = tested on: M14 melanoma
M19-MEL melanoma = tested on: M19-MEL melanoma
MALME-3M melanoma = tested on: MALME-3M melanoma
MOLT-4 leukemia = tested on: MOLT-4 leukemia
NCI-H226 lung = tested on: NCI-H226 lung
NCI-H23 lung = tested on: NCI-H23 lung
NCI-H460 lung = tested on: NCI-H460 lung
NCI-H522 lung = tested on: NCI-H522 lung
OVCAR-3 ovarian = tested on: OVCAR-3 ovarian
OVCAR-4 ovarian = tested on: OVCAR-4 ovarian
OVCAR-5 ovarian = tested on: OVCAR-5 ovarian
OVCAR-8 ovarian = tested on: OVCAR-8 ovarian
RPMI-8226 leukemia = tested on: RPMI-8226 leukemia
RXF 393 renal = tested on: RXF 393 renal
RXF-631 renal = tested on: RXF-631 renal
SF-268 CNS = tested on: SF-268 CNS
SF-295 CNS = tested on: SF-295 CNS
SF-539 CNS = tested on: SF-539 CNS
SK-MEL-2 melanoma = tested on: SK-MEL-2 melanoma
SK-MEL-28 melanoma = tested on: SK-MEL-28 melanoma
SK-MEL-5 melanoma = tested on: SK-MEL-5 melanoma
SK-OV-3 ovarian = tested on: SK-OV-3 ovarian
SN12C renal = tested on: SN12C renal
SNB-19 CNS = tested on: SNB-19 CNS
SNB-75 CNS = tested on: SNB-75 CNS
SW-620 colon = tested on: SW-620 colon
TK-10 renal = tested on: TK-10 renal
U251 CNS = tested on: U251 CNS
UACC-257 melanoma = tested on: UACC-257 melanoma
UACC-62 melanoma = tested on: UACC-62 melanoma
UO-31 renal = tested on: UO-31 renal
XF 498 CNS = tested on: XF 498 CNS

Measured: TGI

Cc1cc(Cl)cc2c1NC(=O)C2(O)CC(=O)c1ccc(Br)cc1 (stereo unspecified)
> 70.8 µM: A498 renal
46.5 µM: MOLT-4 leukemia
97.9 µM: SK-MEL-28 melanoma
56.9 µM: RXF 393 renal
76.2 µM: XF 498 CNS
> 55 µM: M19-MEL melanoma
48.2 µM: HL-60(TB) leukemia
99.4 µM: NCI-H23 lung
57.8 µM: SK-MEL-5 melanoma
> 54.6 µM: OVCAR-4 ovarian
56.2 µM: UACC-62 melanoma
42.7 µM: CCRF-CEM leukemia
> 100 µM: 786-0 renal | A549 NSCLC | ACHN renal | CAKI-1 renal | COLO 205 colon | DLD-1 colon | DMS 114 small cell lung | DMS 273 small cell lung | EKVX NSCLC | HCC-2998 colon | HCT-116 colon | HCT-15 colon | HOP-62 NSCLC | HOP-92 NSCLC | HT29 colon | IGROV1 ovarian | K-562 leukemia | KM12 colon | KM20L2 colon | LOX IMVI melanoma | LXFL 529 NSCLC | M14 melanoma | MALME-3M melanoma | NCI-H226 lung | NCI-H460 lung | NCI-H522 lung | OVCAR-3 ovarian | OVCAR-5 ovarian | OVCAR-8 ovarian | RPMI-8226 leukemia | RXF-631 renal | SF-268 CNS | SF-295 CNS | SF-539 CNS | SK-MEL-2 melanoma | SK-OV-3 ovarian | SN12C renal | SNB-19 CNS | SNB-75 CNS | SW-620 colon | TK-10 renal | U251 CNS | UACC-257 melanoma | UO-31 renal
